Drawing on US6436960B1, “Farnesyl transferase inhibitors having a piperidine structure and process for preparation thereof” (LG Chemical Ltd., priority 1998, dated 2002), this text covers IC50 for 9 compounds.

Assay [1] has as its target T1, Ras farnesyl transferase (Homo sapiens, UniProt P49354+P49356).
T1 construct: made in house
As to the kind of experiment: in vitro inhibitory activity for Ras farnesyl transferase, H-Ras substrate. The assay is classed as biochemical. Conditions: recombinant Ras farnesyl transferase, H-Ras substrate, tritium-farnesylpyrophosphate, 30 minutes at 37° C.; read-out: H-Ras IC50.

Assay [2] has as its target T1, Ras farnesyl transferase. As to the kind of experiment: in vitro inhibitory activity for Ras farnesyl transferase, K-Ras substrate. Conditions: recombinant Ras farnesyl transferase, K-Ras substrate; read-out: K-Ras IC50. The assay is classed as biochemical.
Assay [3] concerns the target T2, Ras farnesyl transferase (Rattus norvegicus, UniProt Q02293+Q04631).
T2 construct: endogenous in cells; host or cells: Rat2 fibroblasts transformed with C-Harvey-Ras, or with H-Ras carrying the K-Ras C-terminal polybasic lysine domain
The assay is described as follows: in vivo (cellular) Ras farnesyl transferase inhibitory activity, Rat2 cells expressing C-Harvey-Ras. The assay is classed as cell-based. Particulars: Rat2 cell line expressing C-Harvey-Ras; concentration inhibiting 50% of farnesyl binding of Ras protein; read-out: H-Ras CIC50. Summed up:
(§1)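 Transformed Rat2 cells treated with compound in 1% DMSO, labelled with [35S]methionine from 4 h onward for a further 20 h. Ras immunoprecipitated with Y13-259 and resolved by SDS-PAGE and autoradiography. CIC50 is the concentration inhibiting 50% of Ras farnesylation, from farnesylated versus unfarnesylated band intensities.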

Assay [4] addresses T2, Ras farnesyl transferase. The assay is described as follows: in vivo (cellular) Ras farnesyl transferase inhibitory activity, Rat2 cells transformed with H-Ras fused with polybasic lysine domain of K-Ras. In kind it is cell-based. Particulars: Rat2 cell line transformed with H-Ras substituted with polybasic lysine domain at C-terminus of K-Ras; concentration inhibiting 50% of farnesyl binding; read-out: K-Ras CIC50. Summed up: as §1

Structures are written as SMILES. pIC50: −log10 of the molar value.

`CN1CCN(C(=O)c2cn(Cc3cncn3CC3CCN(C(=O)c4ccc5ccccc5c4)CC3)cc2-c2cccc3ccccc23)CC1` [Compound 49]: the pIC50 was 8.74 at Ras farnesyl transferase [1], 7.92 on Ras farnesyl transferase [2], 6.46 on Ras farnesyl transferase [3] and 5.00 on Ras farnesyl transferase [4].

As for `CC(C)c1nc(C(=O)N2CCC(Cn3cncc3Cn3cc(C(=O)N4CCN(C)CC4)c(-c4cccc5ccccc45)c3)CC2)cs1` [Compound 51], the pIC50 at Ras farnesyl transferase [1] was 8.52; on Ras farnesyl transferase [2], 8.00; on Ras farnesyl transferase [3] it was 8.30; at Ras farnesyl transferase [4], 4.30 to 5.00.

In the case of `COCCN(C)C(=O)c1cn(Cc2cncn2CC2CCN(C(=O)OCC(C)C)CC2)cc1-c1cccc2ccccc12` [Compound 35, 1-[1-(1-Isobutoxycarbonyl-piperidin-4-ylmethyl)-1H-imidazol-5-ylmethyl]-3-[N-(2-methoxyethyl)-N-methyl]carbamoyl-4-(naphthalen-1-yl)-1H-pyrrole], the pIC50 is 8.22 on Ras farnesyl transferase [1], 7.00 to 8.00 at Ras farnesyl transferase [2], 7.00 to 8.00 at Ras farnesyl transferase [3] and 5.00 to 6.00 at Ras farnesyl transferase [4].

Regarding `COCCN(C)C(=O)c1cn(Cc2cncn2CC2CCN(C(=O)c3ccc4ccccc4c3)CC2)cc1-c1cccc2ccccc12` [Compound 27, 3-[N-(2-Methoxyethyl)-N-methyl]carbamoyl-4-(naphthalen-1-yl)-1-{1-[1-(naphthalen-2-ylcarbonyl)piperidin-4-ylmethyl]-1H-imidazol-5-ylmethyl}-1H-pyrrole], the pIC50 on Ras farnesyl transferase [1] was 8.05; at Ras farnesyl transferase [2] it was 7.82; on Ras farnesyl transferase [3] it was 7.00 to 8.00; at Ras farnesyl transferase [4], 5.00 to 6.00.

Take `CC(=O)N1CCC(Cn2cncc2Cn2cc(C(=O)N3CCN(C)CC3)c(-c3cccc4ccccc34)c2)CC1` [Compound 42, 1-[1-(1-Acetylpiperidin-4-yl)methyl-1H-imidazol-5-yl]methyl-3-(4-methylpiperazin-1-yl)carbonyl-4-(naphthalen-1-yl)-1H-pyrrole]: the pIC50 is 8.92 at Ras farnesyl transferase [1], 8.22 at Ras farnesyl transferase [2], 7.60 at Ras farnesyl transferase [3] and 4.30 to 5.00 on Ras farnesyl transferase [4].

As to `CN1CCN(C(=O)c2cn(Cc3cncn3CC3CCN(C(=O)COc4ccccc4)CC3)cc2-c2cccc3ccccc23)CC1` [Compound 44, 3-(4-Methylpiperazin-1-yl)carbonyl-4-(naphthalen-1-yl)-1-[1-(1-phenoxyacetylpiperidin-4-yl)methyl-1H-imidazol-5-yl]methyl-1H-pyrrole], the pIC50 is 8.70 at Ras farnesyl transferase [1], 7.96 at Ras farnesyl transferase [2], 7.30 on Ras farnesyl transferase [3] and 4.30 to 5.00 on Ras farnesyl transferase [4].

For `CN1CCN(C(=O)c2cn(Cc3cncn3CC3CCN(Cc4ccc(-c5ccccc5)cc4)CC3)cc2-c2cccc3ccccc23)CC1` [Compound 56, 1-{1-[1-(4-Biphenylmethyl)piperidin-4-yl]methyl-1H-imidazol-5-yl}methyl-3-(4-methylpiperazin-1-yl)carbonyl-4-(naphthalen-1-yl)-1H-pyrrole], the pIC50 at Ras farnesyl transferase [1] is 8.30; at Ras farnesyl transferase [2], 7.70; on Ras farnesyl transferase [3], 7.30; at Ras farnesyl transferase [4], 5.30.

For the compound `COCCN(C)C(=O)c1cn(Cc2cncn2CC2CCN(Cc3ccc(Oc4ccccc4)cc3)CC2)cc1-c1cccc2ccccc12` [Compound 34, 3-[N-(2-Methoxyethyl)-N-methyl]carbamoyl-4-(naphthalen-1-yl)-1-{1-[1-(4-phenoxybenzyl)piperidin-4-ylmethyl]-1H-imidazol-5-ylmethyl}-1H-pyrrole], the pIC50 at Ras farnesyl transferase [1] was 7.96; at Ras farnesyl transferase [2], 7.00 to 8.00; on Ras farnesyl transferase [3], 7.00 to 8.00; at Ras farnesyl transferase [4], 5.00 to 6.00.

As for `COCCN(C)C(=O)c1cn(Cc2cncn2CC2CCN(C(=O)OCc3ccccc3)CC2)cc1-c1cccc2ccccc12` [Compound 5, 1-[1-(1-Benzyloxycarbonyl-piperidin-4-ylmethyl)-1H-imidazol-5-ylmethyl]-3-[N-(2-methoxyethyl)-N-methyl]carbamoyl-4-(naphthalen-1-yl)-1H-pyrrole], the pIC50 at Ras farnesyl transferase [1] was 8.60; at Ras farnesyl transferase [2], 7.00 to 8.00; on Ras farnesyl transferase [3], 7.00 to 8.00; on Ras farnesyl transferase [4], 5.00 to 6.00.
